Source: patent publication US4721775A, “Effective peptides related to the luteinizing hormone releasing hormone from L-amino acids” (Board of Regents, The University of Texas System, priority 1985, dated 1988)
Non-standard residues stand in square brackets, D forms with d. Residues, ends and D or L forms follow the SMILES beside them. pGlu = O=C1CC[C@@H](C(=O)O)N1

Columns and labels:
ovulation = settings: 250 ng; rats; cited from earlier work
release of LH [1] = assay: Release of LH in rats after sc injection; format: in vivo; settings: for LH % change: LHRH = 100; for release of LH: in our assays
Excerpt: (§1) The data on the release of LH and FSH in rats by modifications of LHRH with one structural change are in Table II.
(§2) Exclusive of the salmon-LHRH, only one of the six decapeptides with two structural changes had significant activity.

release of FSH [2] = assay: Release of FSH in rats after sc injection; format: in vivo; settings: for FSH % change: LHRH = 100; for release of FSH: in our assays
Excerpt: as §1, §2

release of LH [3] = settings: at 1000 and 5000 ng; cited from earlier work
release of FSH [4] = settings: at 1000 and 5000 ng; cited from earlier work
[5] = relative to LHRH; cited from earlier work
[6] = system: rat anterior pituitary cells in primary culture; settings: cited from earlier work; for activities to release LH compared with LHRH (Table I): fraction of the activities of LHRH or words; for activity (potency) to release LH relative to P/O LHRH: in vitro, rat pituitary cells, Sherwood et al. (a), Miyamoto et al. (b)
rat pituitary cells = settings: cited from earlier work; for activities to release FSH compared with LHRH (Table I): fraction of the activities of LHRH or words
[7] = sc injection, dose and time as stated in the source
[8] = 30 min. after sc injection, 100 ng
[9] = 60 min. after sc injection, 300 ng
[10] = 60 min. after sc injection, 3000 ng
[11] = release 30 min. after sc injection, dosage of peptide 100 ng
[12] = release 30 min. after sc injection, dosage of peptide 1000 ng
[13] = release 60 min. after sc injection, dosage of peptide 300 ng
[14] = release 60 min. after sc injection, dosage of peptide 3000 ng

For “[N-Ac-D-2-Nal^1, D-pClPhe^2, D-3-Pal^3, D-Arg^6, Trp^7, D-Ala10 ]-LHRH”, the antiovulatory activity (ovulation) is listed as “ca. 90%”.
In the case of CC(C)C[C@H](NC(=O)CNC(=O)[C@H](Cc1ccc(O)cc1)NC(=O)[C@H](CO)NC(=O)[C@H](Cc1c[nH]c2ccccc12)NC(=O)[C@H](Cc1c[nH]cn1)NC(=O)[C@@H]1CCC(=O)N1)C(=O)N[C@@H](CC(C)C)C(=O)N1CCC[C@H]1C(=O)NCC(N)=O [[Leu^8]--LHRH, p-Glu His Trp Ser Tyr Gly Leu Leu Pro Gly-NH2, reference compound], the “release of LH compared with LHRH” value (release of LH [1]; [7]) is listed as “relatively low activities”, the “release of FSH compared with LHRH” value (release of FSH [2]; [7]) is listed as “relatively low activities” and the “activity for LH release” value (release of LH [3]) is listed as “Inactive”. The “activity for FSH release” value (release of FSH [4]) was “Inactive”.
For [3(2-Nal)^3 ]-LHRH, the “agonist activity in vitro, as active as LHRH” value [5] is listed as 200%.
Work on NC(=O)CNC(=O)[C@@H]1CCCN1C(=O)[C@H](Cc1ccc(O)cc1)NC(=O)[C@H](Cc1c[nH]c2ccccc12)NC(=O)CNC(=O)[C@H](Cc1c[nH]cn1)NC(=O)[C@H](CO)NC(=O)[C@H](Cc1c[nH]c2ccccc12)NC(=O)[C@H](Cc1c[nH]cn1)NC(=O)[C@@H]1CCC(=O)N1 [[His^5 Trp^7 Tyr^8] (Chicken II), pGlu--His--Trp--Ser--His--Gly--Trp--Tyr--Pro--Gly--NH2, reference compound] ([pGlu]HWSHGWYPG-NH2) yielded an LH % change (release of LH [1]; [8]) of 18%, an LH % change (release of LH [1]; 30 min. after sc injection, 1000 ng) of 39% and an LH % change (release of LH [1]; [9]) of 32%. For the same compound, the LH % change (release of LH [1]; [10]) was 10%, the “release of LH” value (release of LH [1]; dose level 100 ng) was 18% and the “release of LH” value (release of LH [1]; dose level 1000 ng) was 30%. It also gave an LH (release of LH [1]; [11]) of 2 ng/mL, an LH (release of LH [1]; [12]) of 14 ng/mL and an LH (release of LH [1]; [13]) of 3.5 ng/mL. The LH (release of LH [1]; [14]) was 8.4 ng/mL, the FSH % change (release of FSH [2]; [8]) was 62% and the FSH % change (release of FSH [2]; [9]) was 58%. For the same compound, the FSH % change (release of FSH [2]; [10]) was 55%, the “release of FSH” value (release of FSH [2]; dose level 100 ng) was 62% and the “release of FSH” value (release of FSH [2]; dose level 1000 ng) was 86%. For the same compound, the FSH (release of FSH [2]; [11]) was 305 ng/mL, the FSH (release of FSH [2]; [12]) was 596 ng/mL and the FSH (release of FSH [2]; [13]) was 344 ng/mL. For the same compound, the FSH (release of FSH [2]; [14]) was 644 ng/mL, the “activities to release LH compared with LHRH (Table I)” value [6] was “about 1/3” and the “activity (potency) to release LH relative to P/O LHRH” value [6] was 32%. For the same compound, the “activities to release FSH compared with LHRH (Table I)” value (rat pituitary cells) was “about 1/3” and the “activity to release FSH relative to P/O LHRH” value (rat pituitary cells; in vitro, rat pituitary cells, Miyamoto et al. (b)) was 41%.
CC(C)C[C@H](NC(=O)[C@H](Cc1c[nH]c2ccccc12)NC(=O)CNC(=O)[C@H](Cc1ccc(O)cc1)NC(=O)[C@H](CO)NC(=O)[C@H](Cc1c[nH]c2ccccc12)NC(=O)[C@H](Cc1c[nH]cn1)NC(=O)[C@@H]1CCC(=O)N1)C(=O)N1CCC[C@H]1C(=O)NCC(N)=O [[Trp^7 Leu^8]--LHRH, pGlu--His--Trp--Ser--Tyr--Gly--Trp--Leu--Pro--Gly--NH2, reference compound] ([pGlu]HWSYGWLPG-NH2) showed an LH % change (release of LH [1]; [10]) of 3.0%, an LH (release of LH [1]; [14]) of 2.5 ng/mL and an FSH % change (release of FSH [2]; [10]) of 22%. For the same compound, the FSH (release of FSH [2]; [14]) was 258 ng/mL, the “activities to release LH compared with LHRH (Table I)” value [6] was “extremely low activities” and the “activity (potency) to release LH relative to P/O LHRH” value [6] was 2-3%. The “activities to release FSH compared with LHRH (Table I)” value (rat pituitary cells) was “extremely low activities”.
